Data published in patent US9463216B2 (priority 2012, dated 2016).

Legend:
[1] = target: recombinant LT (PA + LF) (Bacillus anthracis, UniProt P13423); set-up: species or system BALB/cJ mice; conditions: mouse, in vivo
[2] = target: lethal toxin (PA + LF) (Bacillus anthracis, UniProt P13423)
[3] = system: PA uptake by J774 macrophages, ANTXR2-expressing (CCHO) and ANTXR2-null (PR230) chinese hamster ovary cells; assay type: cell-based, chinese hamster (CHO cells)
[4] = system: PA; assay type: biochemical, B. anthracis
[5] = target: PA (Bacillus anthracis, UniProt P13423); assay type: binding, B. anthracis
Sequence of PA (Bacillus anthracis, UniProt P13423) (P13423 30-764 limits assumed): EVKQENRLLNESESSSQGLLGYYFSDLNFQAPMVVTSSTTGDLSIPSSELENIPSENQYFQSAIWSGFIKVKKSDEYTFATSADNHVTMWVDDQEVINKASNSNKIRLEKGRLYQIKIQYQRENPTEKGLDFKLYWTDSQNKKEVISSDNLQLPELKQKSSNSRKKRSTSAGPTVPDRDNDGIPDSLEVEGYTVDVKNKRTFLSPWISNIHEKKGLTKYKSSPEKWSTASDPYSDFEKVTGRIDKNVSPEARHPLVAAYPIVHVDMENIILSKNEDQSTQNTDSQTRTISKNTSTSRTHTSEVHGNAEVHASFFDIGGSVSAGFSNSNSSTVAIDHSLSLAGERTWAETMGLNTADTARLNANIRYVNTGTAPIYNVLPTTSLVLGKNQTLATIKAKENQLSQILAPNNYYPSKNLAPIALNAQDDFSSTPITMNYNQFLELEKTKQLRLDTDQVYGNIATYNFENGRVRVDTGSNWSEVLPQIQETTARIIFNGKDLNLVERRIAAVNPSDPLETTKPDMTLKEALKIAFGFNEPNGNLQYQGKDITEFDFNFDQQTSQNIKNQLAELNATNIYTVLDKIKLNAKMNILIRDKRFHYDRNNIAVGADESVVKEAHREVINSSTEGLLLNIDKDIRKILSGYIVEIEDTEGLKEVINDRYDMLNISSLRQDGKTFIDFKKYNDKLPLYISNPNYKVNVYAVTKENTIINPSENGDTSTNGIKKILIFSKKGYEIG

[6] = system: J774 macrophages and PR230 cells; assay type: cell-based, chinese hamster (PR230 cells)

Sequence of recombinant LT (PA + LF) (P13423 30-764 limits assumed): as above
Sequence of lethal toxin (PA + LF) (P13423 30-764 limits assumed): as above

Row | Compound | protection of mice from LT [1] | effect on cell uptake of PA [3] | effect on PA-binding to ANTXR2 or LF, PA oligomerization, or channel formation in vitro [4] | LT inhibitory activity of metal ion chelates [2] | inhibit LT-mediated cytolysis in bone marrow macrophage cells [2] | inhibition of PA oligomers [2] | form complexes with PA [5] | also measured
1 | N[C@@H](CCC(=O)O)C(=O)O [L-Glu, reference compound] | did not protect mice from LT | – | – | – | – | – | – | –
2 | Fe(III) [reference compound] | – | – | – | – | – | – | – | concentration at which Fe(III) alone may inhibit LT [2]: 10 mM; inhibitory Fe(III) concentration relative to concentrations effective in the Fe(III) co-complexes of compounds 1, 2, and 3 [2]: 10^3-10^4 fold; inhibitory activity of Fe(III) alone [2]: did not possess inhibitory activity
3 | bovine serum albumin [reference compound] | did not protect mice from LT | – | – | – | – | – | – | –
4 | γ-DLPGA [Compound 1] | completely protected | prevent proper cell uptake | do not affect | only the Fe(III) chelate had LT inhibitory activity | could inhibit | equally inhibited | can form complexes with PA | affinity for PA, higher than compound 2 [5]: 10 fold
5 | γ-DPGA [Compound 2] | completely protected | prevent proper cell uptake | do not affect | only the Fe(III) chelate had LT inhibitory activity | could inhibit | equally inhibited | can form complexes with PA | stimulation of PA internalization after pretreatment with Cap D [3]: eliminates the stimulation of PA internalization; inhibitory activity after treatment with Cap D [1]: abolished the inhibitory activity; formation of co-complexes with PA after pretreatment with Cap D [5]: prevents formation of co-complexes with PA; binding to J774 macrophages and PR230 cells [6]: equal affinity; binding to Pronase-treated PR230 cells [6]: significantly reduced
